Data reported in patent US20100010219A1, “METHOD FOR PRODUCING PYRROLIDINE COMPOUND” (JAPAN TOBACCO INC., priority 2006, published 2010).
Counter-ions that a name gives are not always drawn.

Molecular target: T1, human HSD-1 (recombinant HSD-1) (Homo sapiens, UniProt P28845)
T1 construct: made in house
Assay: HSD-1 activity inhibitory action in vitro (SPA, conversion of cortisone to cortisol)
Assay type: biochemical
Conditions: recombinant human HSD-1 expressed using baculovirus system; 10 nM 3H cortisone, 500 μM NADPH; room temperature 90 to 120 min; read-out: hHSD1 (IC50 (nM))

T1 sequence (P28845 whole entry): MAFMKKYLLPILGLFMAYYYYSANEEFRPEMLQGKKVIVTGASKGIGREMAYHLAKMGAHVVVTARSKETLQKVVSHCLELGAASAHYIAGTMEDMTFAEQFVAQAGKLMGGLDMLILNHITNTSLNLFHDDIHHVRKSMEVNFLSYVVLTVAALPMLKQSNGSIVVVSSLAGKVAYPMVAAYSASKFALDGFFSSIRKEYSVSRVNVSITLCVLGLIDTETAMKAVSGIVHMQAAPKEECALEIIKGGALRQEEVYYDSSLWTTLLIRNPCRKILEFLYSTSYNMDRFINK

Structure (SMILES) | IC50
O=C(Nc1ccc(C(F)(F)F)cc1)N1CCC(n2ncc(C(=O)N3CCC(c4ccccc4C(F)(F)F)C3)c2C2CC2)CC1 (stereo not drawn) [Example 141, 1-{5-cyclopropyl-1-[1-(4-trifluoromethylphenylcarbamoyl)piperidin-4-yl]-1H-pyrazole-4-carbonyl}-3-(2-trifluoromethylphenyl)pyrrolidine] | < 30 nM
CC(=O)N1CCC(OC(=O)N2CCC(n3ncc(C(=O)N4CC[C@@H](c5ccccc5C(F)(F)F)C4)c3C3CC3)CC2)CC1 [Example 63, 1-{1-[1-(1-acetylpiperidin-4-yl-oxycarbonyl)piperidin-4-yl]-5-cyclopropyl-1H-pyrazole-4-carbonyl}-[(S)-3-(2-trifluoromethylphenyl)]pyrrolidine] | < 30 nM
O=C(O)c1csc(N2CCC(n3ncc(C(=O)N4CCC(c5ccccc5C(F)(F)F)C4)c3C3CC3)CC2)n1 (stereo not drawn) [Example 116, 2-(4-{5-cyclopropyl-4-[3-(2-trifluoromethylphenyl)pyrrolidine-1-carbonyl]pyrazol-1-yl}piperidin-1-yl)thiazole-4-carboxylic acid] | < 30 nM
C[C@@H](CO)NC(=O)N1CCC(n2ncc(C(=O)N3CC[C@@H](c4ccccc4C(F)(F)F)C3)c2C2CC2)CC1 [Example 23, 1-(5-cyclopropyl-1-{1-[(S)-2-hydroxy-1-methylethylcarbamoyl]piperidin-4-yl}-1H-pyrazole-4-carbonyl)-[(S)-3-(2-trifluoromethylphenyl)]pyrrolidine] | < 30 nM
NCCNC(=O)N1CCC(n2ncc(C(=O)N3CC[C@@H](c4ccccc4C(F)(F)F)C3)c2C2CC2)CC1 [Example 11, 1-{1-[1-(2-aminoethylcarbamoyl)piperidin-4-yl]-5-cyclopropyl-1H-pyrazole-4-carbonyl}-[(S)-3-(2-trifluoromethylphenyl)]pyrrolidine hydrochloride] | < 30 nM
O=C(c1cnn(C2CCN(C3CC3)CC2)c1C1CC1)N1CC[C@@H](c2ccccc2C(F)(F)F)C1 [Example 99, 1-[5-cyclopropyl-1-(1-cyclopropylpiperidin-4-yl)-1H-pyrazole-4-carbonyl]-[(S)-3-(2-trifluoromethylphenyl)]pyrrolidine hydrochloride] | < 30 nM
Cc1nc(N2CCC(n3ncc(C(=O)N4CC[C@@H](c5ccccc5C(F)(F)F)C4)c3C3CC3)CC2)n[nH]1 [Example 117, 1-{5-cyclopropyl-1-[1-(5-methyl-4H-[1,2,4]triazol-3-yl)piperidin-4-yl]-1H-pyrazole-4-carbonyl}-[(S)-3-(2-trifluoromethylphenyl)]pyrrolidine hydrochloride] | < 30 nM
N#C/N=C(\N)N1CCC(n2ncc(C(=O)N3CC[C@@H](c4ccccc4C(F)(F)F)C3)c2C2CC2)CC1 [Example 112, 1-{1-[1-(N-cyanocarbamimidoyl)piperidin-4-yl]-5-cyclopropyl-1H-pyrazole-4-carbonyl}-[(S)-3-(2-trifluoromethylphenyl)]pyrrolidine] | < 30 nM
O=C(NC1CCNCC1)N1CCC(n2ncc(C(=O)N3CC[C@@H](c4ccccc4C(F)(F)F)C3)c2C2CC2)CC1 [Example 37, 1-{5-cyclopropyl-1-[1-(piperidin-4-yl-carbamoyl)piperidin-4-yl]-1H-pyrazole-4-carbonyl}-[(S)-3-(2-trifluoromethylphenyl)]pyrrolidine hydrochloride] | < 30 nM
C/C(=N\C#N)N1CCC(n2ncc(C(=O)N3CC[C@@H](c4ccccc4C(F)(F)F)C3)c2C2CC2)CC1 [Example 110, 1-{1-[1-(1-cyanoiminoethyl)piperidin-4-yl]-5-cyclopropyl-1H-pyrazole-4-carbonyl}-[(S)-3-(2-trifluoromethylphenyl)]pyrrolidine] | < 30 nM
CC(=O)NCCNC(=O)N1CCC(n2ncc(C(=O)N3CC[C@@H](c4ccccc4C(F)(F)F)C3)c2C2CC2)CC1 [Example 10, 1-{1-[1-(2-acetylaminoethylcarbamoyl)piperidin-4-yl]-5-cyclopropyl-1H-pyrazole-4-carbonyl}-[(S)-3-(2-trifluoromethylphenyl)]pyrrolidine] | < 30 nM
O=C(c1cnn(C2CCN(C(=O)N3CCC(CO)CC3)CC2)c1C1CC1)N1CC[C@@H](c2ccccc2C(F)(F)F)C1 [Example 24, 1-{5-cyclopropyl-1-[1-(4-hydroxymethylpiperidine-1-carbonyl)piperidin-4-yl]-1H-pyrazole-4-carbonyl}-[(S)-3-(2-trifluoromethylphenyl)]pyrrolidine] | < 30 nM
O=C(Nc1ccccc1F)N1CCC(n2ncc(C(=O)N3CCC(c4ccccc4OC(F)(F)F)C3)c2C2CC2)CC1 (stereo not drawn) [Example 140, 1-{5-cyclopropyl-1-[1-(2-fluorophenylcarbamoyl)piperidin-4-yl]-1H-pyrazole-4-carbonyl}-3-(2-trifluoromethoxyphenyl)pyrrolidine] | < 30 nM
CN(C)C1CCN(C(=O)N2CCC(n3ncc(C(=O)N4CC[C@@H](c5ccccc5C(F)(F)F)C4)c3C3CC3)CC2)C1 (stereo partly drawn) [Example 41, 1-{5-cyclopropyl-1-[1-(3-dimethylaminopyrrolidine-1-carbonyl)piperidin-4-yl]-1H-pyrazole-4-carbonyl}-[(S)-3-(2-trifluoromethylphenyl)]pyrrolidine hydrochloride] | < 30 nM
N#Cc1ccc(N2CCC(n3ncc(C(=O)N4CCC(c5ccccc5C(F)(F)F)C4)c3C3CC3)CC2)nc1 (stereo not drawn) [Example 175, 1-{1-[1-(5-cyanopyridin-2-yl)piperidin-4-yl]-5-cyclopropyl-1H-pyrazole-4-carbonyl}-3-(2-trifluoromethylphenyl)pyrrolidine] | < 30 nM
O=C1CC[C@@H](C(=O)N2CCC(n3ncc(C(=O)N4CC[C@@H](c5ccccc5C(F)(F)F)C4)c3C3CC3)CC2)N1 [Example 74, 1-(5-cyclopropyl-1-{1-[(S)-5-oxopyrrolidine-2-carbonyl]piperidin-4-yl}-1H-pyrazole-4-carbonyl)-[(S)-3-(2-trifluoromethylphenyl)]pyrrolidine] | < 30 nM
CC(C)N1CCN(C(=O)N2CCC(n3ncc(C(=O)N4CC[C@@H](c5ccccc5C(F)(F)F)C4)c3C3CC3)CC2)CC1 [Example 30, 1-{5-cyclopropyl-1-[1-(4-isopropylpiperazine-1-carbonyl)piperidin-4-yl]-1H-pyrazole-4-carbonyl}-[(S)-3-(2-trifluoromethylphenyl)]pyrrolidine hydrochloride] | < 30 nM
O=C(c1cccc(Cl)c1)N1CCC(n2ncc(C(=O)N3CCC(c4cccnc4)C3)c2C2CC2)CC1 (stereo not drawn) [Example 156, 1-{1-[1-(3-chlorobenzoyl)piperidin-4-yl]-5-cyclopropyl-1H-pyrazole-4-carbonyl}-3-(pyridin-3-yl)pyrrolidine] | < 30 nM
O=C(c1cnn(C2CCN(C(=O)N3CCC(O)C3)CC2)c1C1CC1)N1CC[C@@H](c2ccccc2C(F)(F)F)C1 (stereo partly drawn) [Example 16, 1-{5-cyclopropyl-1-[1-(3-hydroxypyrrolidine-1-carbonyl)piperidin-4-yl]-1H-pyrazole-4-carbonyl}-[(S)-3-(2-trifluoromethylphenyl)]pyrrolidine] | < 30 nM
CC(C)[C@@H](CO)NC(=O)N1CCC(n2ncc(C(=O)N3CC[C@@H](c4ccccc4C(F)(F)F)C3)c2C2CC2)CC1 [Example 49, 1-(5-cyclopropyl-1-{1-[(S)-1-hydroxymethyl-2-methylpropylcarbamoyl]piperidin-4-yl}-1H-pyrazole-4-carbonyl)-[(S)-3-(2-trifluoromethylphenyl)]pyrrolidine] | < 30 nM
O=C1CN(C(=O)N2CCC(n3ncc(C(=O)N4CC[C@@H](c5ccccc5C(F)(F)F)C4)c3C3CC3)CC2)CCN1 [Example 26, 1-{5-cyclopropyl-1-[1-(3-oxopiperazine-1-carbonyl)piperidin-4-yl]-1H-pyrazole-4-carbonyl}-[(S)-3-(2-trifluoromethylphenyl)]pyrrolidine] | < 30 nM
CC(=O)N1CCC(C(=O)N2CCC(n3ncc(C(=O)N4CC[C@@H](c5ccccc5C(F)(F)F)C4)c3C3CC3)CC2)CC1 [Example 91, 1-{1-[1-(1-acetylpiperidine-4-carbonyl)piperidin-4-yl]-5-cyclopropyl-1H-pyrazole-4-carbonyl}-[(S)-3-(2-trifluoromethylphenyl)]pyrrolidine] | < 30 nM
COC(=O)N1CCC(n2ncc(C(=O)N3CC[C@@H](c4ccccc4C(F)(F)F)C3)c2C2CC2)CC1 [Example 57, 1-[5-cyclopropyl-1-(1-methoxycarbonylpiperidin-4-yl)-1H-pyrazole-4-carbonyl]-[(S)-3-(2-trifluoromethylphenyl)]pyrrolidine] | < 30 nM
O=C(c1cnn(C2CCN(c3n[nH]c(C4CC4)n3)CC2)c1C1CC1)N1CC[C@@H](c2ccccc2C(F)(F)F)C1 [Example 118, 1-{5-cyclopropyl-1-[1-(5-cyclopropyl-4H-[1,2,4]triazol-3-yl)piperidin-4-yl]-1H-pyrazole-4-carbonyl}-[(S)-3-(2-trifluoromethylphenyl)]pyrrolidine hydrochloride] | < 30 nM
NC1CCN(C(=O)N2CCC(n3ncc(C(=O)N4CC[C@@H](c5ccccc5C(F)(F)F)C4)c3C3CC3)CC2)C1 (stereo partly drawn) [Example 36, 1-{1-[1-(3-aminopyrrolidine-1-carbonyl)piperidin-4-yl]-5-cyclopropyl-1H-pyrazole-4-carbonyl}-[(S)-3-(2-trifluoromethylphenyl)]pyrrolidine hydrochloride] | < 30 nM
NC(=O)[C@H]1CC[C@H](n2ncc(C(=O)N3CC[C@@H](c4ccccc4C(F)(F)F)C3)c2C2CC2)CC1 [Example 130, 1-[1-(trans-4-carbamoylcyclohexyl)-5-cyclopropyl-1H-pyrazole-4-carbonyl]-[(S)-3-(2-trifluoromethylphenyl)]pyrrolidine] | < 30 nM
O=C(N[C@H](CO)Cc1ccccc1)N1CCC(n2ncc(C(=O)N3CC[C@@H](c4ccccc4C(F)(F)F)C3)c2C2CC2)CC1 [Example 50, 1-(1-{1-[(S)-1-benzyl-2-hydroxyethylcarbamoyl]piperidin-4-yl}-5-cyclopropyl-1H-pyrazole-4-carbonyl)-[(S)-3-(2-trifluoromethylphenyl)]pyrrolidine] | < 30 nM
